Results from PubChem BioAssay (NCI).
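Growth conditions: 96-well plates. Treatment: test compound, 48 hours, 5 concentrations. Analysis: linear interpolation between bracketing concentrations; unreached endpoints set to highest concentration. GI50: concentration for 50% inhibition of growth. TGI marks complete inhibition of growth.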

Key:
Assay in all cases: inhibition of tumour cell growth, NCI panel, 48 h
[1] = system: 786-0 renal
[2] = system: A498 renal
[3] = system: A549 NSCLC
[4] = system: ACHN renal
[5] = system: BT-549 breast
[6] = system: CAKI-1 renal
[7] = system: CCRF-CEM leukemia
[8] = system: COLO 205 colon
[9] = system: DU-145 prostate
[10] = system: EKVX NSCLC
[11] = system: HCC-2998 colon
[12] = system: HCT-116 colon
[13] = system: HCT-15 colon
[14] = system: HL-60(TB) leukemia
[15] = system: HOP-62 NSCLC
[16] = system: HS 578T breast
[17] = system: HT29 colon
[18] = system: IGROV1 ovarian
[19] = system: K-562 leukemia
[20] = system: KM12 colon
[21] = system: LOX IMVI melanoma
[22] = system: M14 melanoma
[23] = system: MALME-3M melanoma
[24] = system: MCF7 breast
[25] = system: MDA-MB-435
[26] = system: MOLT-4 leukemia
[27] = system: NCI-H23 lung
[28] = system: NCI-H460 lung
[29] = system: NCI-H522 lung
[30] = system: NCI/ADR-RES ovarian
[31] = system: OVCAR-3 ovarian
[32] = system: OVCAR-4 ovarian
[33] = system: OVCAR-5 ovarian
[34] = system: OVCAR-8 ovarian
[35] = system: PC-3 prostate
[36] = system: RPMI-8226 leukemia
[37] = system: SF-268 CNS
[38] = system: SF-295 CNS
[39] = system: SF-539 CNS
[40] = system: SK-MEL-2 melanoma
[41] = system: SK-MEL-28 melanoma
[42] = system: SK-MEL-5 melanoma
[43] = system: SK-OV-3 ovarian
[44] = system: SNB-19 CNS
[45] = system: SR leukemia
[46] = system: SW-620 colon
[47] = system: T-47D breast
[48] = system: U251 CNS
[49] = system: UACC-257 melanoma
[50] = system: UACC-62 melanoma
[51] = system: UO-31 renal
[52] = system: HOP-92 NSCLC
[53] = system: MDA-MB-231 breast
[54] = system: NCI-H226 lung
[55] = system: RXF 393 renal
[56] = system: SN12C renal
[57] = system: SNB-75 CNS
[58] = system: TK-10 renal

CCN(CC)Cc1ccc(C(=S)Nc2ccc(C)cc2)s1
TGI [1]: 29.1 µM | TGI [2]: 27.2 µM | TGI [3]: 36.1 µM | TGI [4]: 39 µM | TGI [5]: 40.2 µM | TGI [6]: 29.6 µM | TGI [7]: 30.8 µM | TGI [8]: 31.7 µM | TGI [9]: 56.7 µM | TGI [10]: 35.2 µM | TGI [11]: 25.6 µM | TGI [12]: 28.7 µM | TGI [13]: 32.3 µM | TGI [14]: 27 µM | TGI [15]: 34.5 µM | TGI [16]: 16.7 µM | TGI [17]: 14.4 µM | TGI [18]: 26.2 µM | TGI [19]: 26.4 µM | TGI [20]: 31 µM | TGI [21]: 30.2 µM | TGI [22]: 28.9 µM | TGI [23]: 32.5 µM | TGI [24]: 25.1 µM | TGI [25]: 26.5 µM | TGI [26]: 41.6 µM | TGI [27]: 26.5 µM | TGI [28]: 30.8 µM | TGI [29]: 28.9 µM | TGI [30]: 51.9 µM | TGI [31]: 70.9 µM | TGI [32]: 71 µM | TGI [33]: 29.5 µM | TGI [34]: 35.3 µM | TGI [35]: 31.3 µM | TGI [36]: 46.8 µM | TGI [37]: 4.42 µM | TGI [38]: 28.3 µM | TGI [39]: 37.7 µM | TGI [40]: 30.2 µM | TGI [41]: 30.5 µM | TGI [42]: 26.5 µM | TGI [43]: 31.1 µM | TGI [44]: 34.7 µM | TGI [45]: 37.6 µM | TGI [46]: 45.3 µM | TGI [47]: 37.4 µM | TGI [48]: 30 µM | TGI [49]: 24.1 µM | TGI [50]: 28.1 µM | TGI [51]: 28.9 µM

Fc1cccc(-n2ccc(-c3ccccc3)nc2=S)c1
GI50 [1]: 21.2 µM | TGI [1]: 44.1 µM | GI50 [2]: 17.2 µM | TGI [2]: 33.3 µM | GI50 [3]: 31.5 µM | TGI [3]: > 87.3 µM | GI50 [4]: 16.7 µM | TGI [4]: 30.4 µM | GI50 [5]: 10.4 µM | TGI [5]: 26 µM | GI50 [6]: 4.11 µM | TGI [6]: 14.3 µM | GI50 [7]: > 85.3 µM | TGI [7]: > 100 µM | TGI [8]: 3.82 µM | GI50 [9]: 20.3 µM | TGI [9]: 66.7 µM | GI50 [10]: 17.7 µM | TGI [10]: 33.4 µM | GI50 [11]: 18.1 µM | TGI [11]: 33.4 µM | GI50 [12]: 21.9 µM | TGI [12]: 61.3 µM | GI50 [13]: 17.3 µM | TGI [13]: 36.1 µM | GI50 [14]: 94 µM | TGI [14]: > 100 µM | GI50 [15]: > 63.4 µM | TGI [15]: > 100 µM | GI50 [52]: 0.862 µM | TGI [52]: 41.6 µM | GI50 [16]: 17.7 µM | TGI [16]: 37.4 µM | GI50 [17]: 57.3 µM | TGI [17]: > 100 µM | GI50 [18]: 25.5 µM | TGI [18]: > 62.2 µM | GI50 [19]: 43 µM | TGI [19]: > 100 µM | GI50 [20]: 18.6 µM | TGI [20]: 42.8 µM | GI50 [21]: 16.1 µM | TGI [21]: 29.5 µM | GI50 [22]: 73 µM | TGI [22]: > 100 µM | GI50 [23]: 65.3 µM | TGI [23]: > 100 µM | GI50 [24]: 18.5 µM | TGI [24]: 41.2 µM | GI50 [53]: 27.9 µM | TGI [53]: > 100 µM | GI50 [25]: 99.7 µM | TGI [25]: > 100 µM | GI50 [26]: 54 µM | TGI [26]: > 100 µM | GI50 [54]: 18.1 µM | TGI [54]: 36.5 µM | GI50 [27]: 15 µM | TGI [27]: 33.2 µM | GI50 [28]: > 100 µM | TGI [28]: > 100 µM | GI50 [29]: 22.7 µM | TGI [29]: 64.5 µM | GI50 [30]: 18.3 µM | TGI [30]: 41.4 µM | GI50 [31]: 19 µM | TGI [31]: 40.6 µM | GI50 [32]: 98.6 µM | TGI [32]: > 100 µM | GI50 [33]: > 94.4 µM | TGI [33]: > 100 µM | GI50 [34]: 26.6 µM | TGI [34]: > 57.7 µM | GI50 [35]: 17.5 µM | TGI [35]: 39.4 µM | GI50 [36]: 47.1 µM | TGI [36]: > 100 µM | GI50 [55]: 15.8 µM | TGI [55]: 30 µM | GI50 [37]: 32.3 µM | TGI [37]: > 100 µM | GI50 [38]: 44.1 µM | TGI [38]: > 82.6 µM | GI50 [39]: 17.6 µM | TGI [39]: 38.9 µM | GI50 [40]: > 100 µM | TGI [40]: > 100 µM | GI50 [41]: 71.9 µM | TGI [41]: > 100 µM | GI50 [42]: 23.1 µM | TGI [42]: > 73.1 µM | GI50 [43]: 1.59 µM | TGI [43]: 44.9 µM | GI50 [56]: 3.01 µM | TGI [56]: 10.4 µM | GI50 [44]: 12.9 µM | TGI [44]: > 59.7 µM | GI50 [57]: 26.7 µM | TGI [57]: > 70.6 µM | GI50 [45]: 53.6 µM | TGI [45]: > 100 µM | GI50 [46]: > 100 µM | TGI [46]: > 100 µM | GI50 [58]: 18.2 µM | TGI [58]: 36 µM | GI50 [48]: 43.2 µM | TGI [48]: > 100 µM | GI50 [49]: 46.7 µM | TGI [49]: > 100 µM | GI50 [50]: > 54.6 µM | TGI [50]: > 100 µM | GI50 [51]: 15.1 µM | TGI [51]: 30 µM
